From patent publication US9776979B2, “EBI2 modulators” (Sanford-Burnham Medical Research Institute, priority 2013, dated 2017) come the findings set out here.

The term IC50 denotes the concentration needed to halve the response being measured.

Chain of EBI2 (P32249 whole entry): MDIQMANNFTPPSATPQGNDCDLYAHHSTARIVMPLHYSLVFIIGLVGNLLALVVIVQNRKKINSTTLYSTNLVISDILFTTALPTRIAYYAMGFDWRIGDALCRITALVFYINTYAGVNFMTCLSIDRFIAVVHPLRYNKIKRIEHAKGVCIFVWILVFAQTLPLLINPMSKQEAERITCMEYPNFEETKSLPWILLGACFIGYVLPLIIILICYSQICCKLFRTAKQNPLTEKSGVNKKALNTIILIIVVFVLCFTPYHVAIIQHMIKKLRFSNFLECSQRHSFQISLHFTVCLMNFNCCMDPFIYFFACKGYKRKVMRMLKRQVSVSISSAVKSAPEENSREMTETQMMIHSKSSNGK

This test has as its target EBI2 (Homo sapiens, UniProt P32249). The test can be described thus: Cell-based luminescent assay (EBI2 modulation). The settings on record: cell-based luminescence; 7a,25-OHC final assay concentration 80 nM; 60 minutes incubation; read-out: IC50. How it is done:
Cell-Based Luminescent Assay
To assess EBI2 modulation, the compounds described herein were assayed in the following cell-based luminescent assay:
1) Plated 600 cells/well in 4 uL of assay media into columns 1-48 of a 1536-well assay plate, using a liquid dispenser.
2) Centrifuged plates at 1000 rpm for 1 minute and covered with lids.
3) Incubated overnight at 37° C., 100% relative humidity, 5% CO2.
1) Centrifuged compound plates containing compounds described herein at 500 rpm for 1 minute.
2) Added compounds into assay plate col 5-48 to final concentration 4-5 uM. Added matching amount of DMSO to positive and negative control wells in columns 1-4.
3) Dispensed 2 ul/well of assay media to columns 1-2 for the positive control wells.
4) Added 2 ul/well of 400 nM 7a,25-OHC (final assay concentration=80 nM) in assay media to columns 3-48 for the negative control and test compound wells.
5) Centrifuged plates at 1000 rpm for 1 minute and re-lid plates.
6) Incubated plates at 37° C., 100% relative humidity, 5% CO2 for 60 minutes.
7) Following 60 minute incubation, delivered 2.5 uL of Detection Reagent solution to each assay plate (Columns 1-48) using a liquid handler.
8) Centrifuged plates at 2000 rpm for 2 minutes and re-lid plates.
9) Incubated plates for 60 minutes at 25 degrees in the dark.
10) Read plates using the Viewlux, Envision or other suitable plate reader using a luminescence detection.
The experimental values were normalized by the difference between values from neutral and stimulator control wells in each plate. Then normalized data was corrected to remove systematic plate patterns due to artifacts such as dispensing tip issues etc.
Regarding `O=C(c1cc2cc(Cl)ccc2[nH]1)N1CCN(c2ccccc2F)CC1` [Compound C476, 5-chloroindol-2-yl 4-(2-fluorophenyl)piperazinyl ketone], the IC50 fell in the range of 100 to 500 nM. The result for `O=C(c1ccc(Br)cc1)N1CCN(Cc2ccc(Cl)cc2)CC1` [Compound C472, 4-bromophenyl 4-[(4-chlorophenyl)methyl]piperazinyl ketone] reads 100 to 500 nM; that for “4-(diphenylmethyl)piperazinyl 5-chlorobenzo[b]thiophen-2-yl ketone [Compound C36]”, less than 100 nM. Next, “4-{[4-fluoro-2-(trifluoromethyl)phenyl]methyl}piperazinyl 5-(trifluoromethyl)indol-2-yl ketone [Compound C418]”: 100 to 500 nM; `O=C(C#Cc1ccc2c(c1)OCO2)N1CCN(C(=O)c2ccc(Br)cc2)CC1` [Compound C120, 3-(2H-benzo[3,4-d]1,3-dioxolen-5-yl)-1-{4-[(4-bromophenyl)carbonyl]piperazinyl}prop-2-yn-1-one]: less than 100 nM. The result for `O=C(C#Cc1cccc(Cl)c1)N1CCN(C(=O)c2ccc(F)cc2)CC1` [Compound C35, 3-(3-chlorophenyl)-1-{4-[(4-fluorophenyl)carbonyl]piperazinyl}prop-2-yn-1-one] reads less than 100 nM. As to `O=C(C#Cc1ccc(Cl)cc1)N1CCN(C(=O)c2ccc(F)cc2)CC1` [Compound C28, 3-(4-chlorophenyl)-1-{4-[(4-fluorophenyl)carbonyl]piperazinyl}prop-2-yn-1-one], the IC50 is less than 100 nM. Next, `O=C(c1cc2cc(Cl)ccc2[nH]1)N1CCN(c2ccc(F)cc2F)CC1` [Compound C434, 4-(2,4-difluorophenyl)piperazinyl 5-chloroindol-2-yl ketone]: 100 to 500 nM; `O=C(C#Cc1cc(F)cc(F)c1)N1CCN(C(=O)c2ccc(Cl)cc2)CC1` [Compound C343, 3-(3,5-difluorophenyl)-1-{4-[(4-chlorophenyl)carbonyl]piperazinyl}prop-2-yn-1-one]: less than 100 nM; `O=C(/C=C/c1ccccc1)N1CCN(Cc2ccccc2Cl)CC1` [Compound C374, (2E)-1-{4-[(2-chlorophenyl)methyl]piperazinyl}-3-phenylprop-2-en-1-one]: less than 100 nM. As to `O=C(C#Cc1ccc(C(F)(F)F)cc1)N1CCN(C(=O)c2ccc(C(F)(F)F)cc2)CC1` [Compound C84, 3-[4-(trifluoromethyl)phenyl]-1-(4-{[4-(trifluoromethyl)phenyl]carbonyl}piperazinyl)prop-2-yn-1-one], the IC50 is less than 100 nM. The result for `COc1ccc(-c2ccc3[nH]c(C(=O)N4CCN(C(c5ccccc5)c5ccccc5)CC4)cc3c2)cc1` [Compound C220, 4-(diphenylmethyl)piperazinyl 5-(4-methoxyphenyl)indol-2-yl ketone] reads less than 100 nM. The result for `O=C(c1cc2cc(C(F)(F)F)ccc2[nH]1)N1CCN(Cc2cc(F)cc(F)c2)CC1` [Compound C251, 4-[(3,5-difluorophenyl)methyl]piperazinyl 5-(trifluoromethyl)indol-2-yl ketone] reads less than 100 nM. On to `Cc1cc(CN2CCN(C(=O)/C=C/c3ccc(Br)cc3)CC2)ccc1F` [Compound C32, (2E)-3-(4-bromophenyl)-1-{4-[(4-fluoro-3-methylphenyl)methyl]piperazinyl}prop-2-en-1-one], for which the IC50 is less than 100 nM.

Consider `O=C(C=Cc1ccc2c(c1)OCO2)N1CCN(C(=O)c2ccc(Cl)cc2)CC1` [Compound C238, 3-(2H-benzo[3,4-d]1,3-dioxolen-5-yl)-1-{4-[(4-chlorophenyl)carbonyl]piperazinyl}prop-2-en-1-one], for which the IC50 was less than 100 nM. The result for `O=C(c1cc2cc(Cl)ccc2[nH]1)N1CCC(Oc2ccccc2)CC1` [Compound C413, 5-chloroindol-2-yl 4-phenoxypiperidyl ketone] reads 100 to 500 nM.

With `COc1ccc2[nH]c(C(=O)N3CCN(C(c4ccccc4)c4ccccc4)CC3)cc2c1` [Compound C97, 4-(diphenylmethyl)piperazinyl 5-methoxyindol-2-yl ketone], the IC50 is less than 100 nM.

Consider `O=C(c1cc2cc(Cl)ccc2[nH]1)N1CCC(Oc2cccc(Cl)c2)CC1` [Compound C272, 5-chloroindol-2-yl 4-(3-chlorophenoxy)piperidyl ketone], for which the IC50 is less than 100 nM.

With `Nc1ccc2cc(C(=O)N3CCN(C(c4ccccc4)c4ccccc4)CC3)ccc2c1` [Compound C223, 6-amino(2-naphthyl) 4-(diphenylmethyl)piperazinyl ketone], the IC50 is less than 100 nM.

For the molecule `O=C(C#Cc1cccc(Cl)c1Cl)N1CCN(C(=O)c2ccc(F)cc2C(F)(F)F)CC1` [Compound C90, 3-(2,3-dichlorophenyl)-1-(4-{[4-fluoro-2-(trifluoromethyl)phenyl]carbonyl}piperazinyl)prop-2-yn-1-one], the concentration for half-maximal inhibition (IC50) was less than 100 nM. On to “4-{[4-fluoro-3-(trifluoromethyl)phenyl]methyl}piperazinyl 5-(trifluoromethyl)indol-2-yl ketone [Compound C415]”, for which the IC50 is 100 to 500 nM. Consider “(2E)-3-(4-ethoxyphenyl)-1-[4-(phenylsulfonyl)piperazinyl]prop-2-en-1-one [Compound C313]”, for which the IC50 was less than 100 nM. Next, `O=C(O)c1ccc(CN2CCN(C(=O)c3cc4cc(Cl)ccc4[nH]3)CC2)cc1` [Compound C177, 4-({4-[(5-chloroindol-2-yl)carbonyl]piperazinyl}methyl)benzoic acid]: 500 to 5000 nM. Next, “4-[(4-bromophenyl)sulfonyl]piperazinyl 5-chloroindol-2-yl ketone [Compound C333]”: less than 100 nM; `O=C(C=Cc1ccc2c(c1)OCO2)N1CCN(Cc2ccc(C(F)(F)F)cc2)CC1` [Compound C167, 3-(2H-benzo[3,4-d]1,3-dioxolan-5-yl)-1-(4-{[4-(trifluoromethyl)phenyl]methyl}piperazinyl)prop-2-en-1-one]: 500 to 5000 nM.

Regarding `O=C(C#Cc1cccc(Cl)c1)N1CCN(Cc2ccc(F)cc2)CC1` [Compound C129, 3-(3-chlorophenyl)-1-{4-[(4-fluorophenyl)methyl]piperazinyl}prop-2-yn-1-one], the IC50 is less than 100 nM. Turning to “4-{[3-fluoro-4-(trifluoromethyl)phenyl]methyl}piperazinyl 5-(trifluoromethyl)indol-2-yl ketone [Compound C389]”, the half-inhibitory concentration (IC50) is less than 100 nM. Next, `O=C(C#Cc1ccc(F)cc1)N1CCN(C(=O)c2ccc(F)cc2C(F)(F)F)CC1` [Compound C287, 3-(4-fluorophenyl)-1-(4-{[4-fluoro-2-(trifluoromethyl)phenyl]carbonyl}piperazinyl)prop-2-yn-1-one]: 100 to 500 nM. For `O=C(Nc1cccc(F)c1)C1CCN(C(=O)c2cc3cc(Cl)ccc3[nH]2)CC1` [Compound C417, {1-[(5-chloroindol-2-yl)carbonyl](4-piperidyl)}-N-(3-fluorophenyl)carboxamide], the IC50 lay within 100 to 500 nM. Turning to `O=C(C#Cc1ccc(Cl)cc1)N1CCN(C(=O)c2ccc(C(F)(F)F)cc2)CC1` [Compound C73, 3-(4-chlorophenyl)-1-(4-{[4-(trifluoromethyl)phenyl]carbonyl}piperazinyl)prop-2-yn-1-one], the half-inhibitory concentration (IC50) is less than 100 nM. Next, `O=C(C#Cc1ccccc1C(F)(F)F)N1CCN(C(=O)c2ccc(Cl)cc2)CC1` [Compound C309, 1-{4-[(4-chlorophenyl)carbonyl]piperazinyl}-3-[2-(trifluoromethyl)phenyl]prop-2-yn-1-one]: less than 100 nM; `O=C(c1cc2ccc(F)cc2[nH]1)N1CCN(C(=O)c2ccc(F)cc2C(F)(F)F)CC1` [Compound C189, 6-fluoroindol-2-yl 4-{[4-fluoro-2-(trifluoromethyl)phenyl]carbonyl}piperazinyl ketone]: 500 to 5000 nM; `O=C(C#Cc1cccc(Cl)c1Cl)N1CCN(Cc2ccc(C(F)(F)F)cc2)CC1` [Compound C281, 3-(2,3-dichlorophenyl)-1-(4-{[4-(trifluoromethyl)phenyl]methyl}piperazinyl)prop-2-yn-1-one]: 100 to 500 nM. On to `O=C(C#Cc1cccc(Cl)c1)N1CCN(Cc2ccc(Cl)cc2)CC1` [Compound C316, 3-(3-chlorophenyl)-1-{4-[(4-chlorophenyl)methyl]piperazinyl}prop-2-yn-1-one], for which the IC50 was less than 100 nM. As for “(2E)-1-[4-(2-(1,3-dihydroisobenzofuran-5-yl)ethyl)piperazinyl]-3-phenylprop-2-en-1-one [Compound C362]”, the IC50 is less than 100 nM. For “4-[(2,4-difluorophenyl)methyl]piperazinyl 5-(trifluoromethyl)indol-2-yl ketone [Compound C412]”, the half-maximal inhibitory concentration (IC50) is 100 to 500 nM. Next, `O=C(c1cc2cc(Cl)ccc2[nH]1)N1CCN(Cc2ccc(F)cc2C(F)(F)F)CC1` [Compound C426, 5-chloroindol-2-yl 4-{[4-fluoro-2-(trifluoromethyl)phenyl]methyl}piperazinyl ketone]: 100 to 500 nM; `COC(=O)c1ccc(CN2CCN(C(=O)c3cc4cc(Cl)ccc4[nH]3)CC2)cc1` [Compound C324, methyl 4-({4-[(5-chloroindol-2-yl)carbonyl]piperazinyl}methyl)benzoate]: less than 100 nM.
